From ChEMBL document CHEMBL4765450, “The components and activities analysis of a novel anticoagulant candidate dHG-5” (Eur J Med Chem, 2020) come the findings set out here.

The source made the active and inactive calls. The calls are words filed in the database; no cut-off is given here.

Test [1] deals with Plasma. The test is described as follows: Anticoagulation activity in human plasma assessed as drug level causing 20 times doubling of APTT by measuring activity potency of oligosaccharides multiplied by the percentage of oligosaccharides in dHG-5 preincubated for 2 mins followed by APTT reagent and measured after 3 mins by coagulometric method relative to dHG-5. Format: functional. The following applies: time 5 min.

Test [2] concerns Rattus norvegicus. The test is described as follows: Antithrombotic activity in thromboplastin and stasis-induced Sprague-Dawley rat deep venous thrombosis model assessed as reduction in venous thrombosis by measuring activity potency of oligosaccharides multiplied by the percentage of oligosaccharides in dHG-5 at 1.66 mg/kg, sc administered 1 hr prior to thromboplastin addition for 20 secs followed by establishment of stasis for 20 mins relative …. Conditions: time 80.33 min, 1.339 h. Format: functional.

Test [3] has as its target Prothrombin (Homo sapiens) (UniProt P00734). The test can be described thus: Inhibition of factor 2a (unknown origin) at IC90 preincubated for 1 min followed by chromogenic substrate addition and measured for 2 mins in presence of AT-III. The following applies: time 3.0 min.
The target in test [4] is T1, Coagulation factor IX (Homo sapiens, UniProt P00740). The test can be described thus: Inhibition of factor 9a (unknown origin) binding to immobilized biotinylated oHG-11 by biolayer interferometry relative to dHG-5. On the technique in general: BLI is a label-free optical method that tracks binding on a fibre tip over time.
For test [5], the system named is Rattus norvegicus. The test is described as follows: Antithrombotic activity in thromboplastin and stasis-induced Sprague-Dawley rat deep venous thrombosis model assessed as reduction in venous thrombosis at 1.66 mg/kg, sc administered 1 hr prior to thromboplastin addition for 20 secs followed by establishment of stasis for 20 mins relative to dHG-5. Format: functional. The following applies: time 80.33 min, 1.339 h.

In test [6] the target is T2, Coagulation factor XII (Homo sapiens) (UniProt P00748).
T2 sequence (whole entry): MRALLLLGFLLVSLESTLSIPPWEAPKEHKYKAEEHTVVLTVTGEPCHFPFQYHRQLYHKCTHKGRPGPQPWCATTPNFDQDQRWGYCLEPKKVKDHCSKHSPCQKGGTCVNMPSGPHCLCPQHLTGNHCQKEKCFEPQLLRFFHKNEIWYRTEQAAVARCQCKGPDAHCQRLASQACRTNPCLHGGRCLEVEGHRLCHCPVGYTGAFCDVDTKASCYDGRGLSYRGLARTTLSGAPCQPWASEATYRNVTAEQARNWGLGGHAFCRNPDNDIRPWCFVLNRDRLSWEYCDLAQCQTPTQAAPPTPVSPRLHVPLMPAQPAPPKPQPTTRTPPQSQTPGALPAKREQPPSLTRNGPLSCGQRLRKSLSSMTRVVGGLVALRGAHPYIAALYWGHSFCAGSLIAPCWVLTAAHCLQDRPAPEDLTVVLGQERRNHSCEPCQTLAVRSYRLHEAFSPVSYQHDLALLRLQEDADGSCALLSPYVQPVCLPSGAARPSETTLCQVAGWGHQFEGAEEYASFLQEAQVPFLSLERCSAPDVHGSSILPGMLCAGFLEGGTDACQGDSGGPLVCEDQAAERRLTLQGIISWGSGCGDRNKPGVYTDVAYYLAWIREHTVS
The test can be described thus: Inhibition of factor 12a (unknown origin) at IC50 using kallikrein chromogenic substrate preincubated for 1 min followed by chromogenic substrate addition and measured for 2 mins in presence of AT-III. Conditions: time 3.0 min.

In test [7] the test system is Plasma. The test is described as follows: Anticoagulation activity in human plasma assessed as drug level causing 20 times doubling of APTT preincubated for 2 mins followed by APTT reagent and measured after 3 mins by coagulometric method relative to dHG-5. Format: functional. Conditions: time 5 min.
Test [8] addresses Coagulation factor X (Homo sapiens) (UniProt P00742). The test is described as follows: Inhibition of factor 10a (unknown origin) at IC90 preincubated for 1 min followed by chromogenic substrate addition and measured for 2 mins in presence of AT-III relative to control. The following applies: time 3.0 min.
Test [9] deals with T3, Coagulation factor VII (Homo sapiens) (UniProt P08709).
T3 sequence (whole entry): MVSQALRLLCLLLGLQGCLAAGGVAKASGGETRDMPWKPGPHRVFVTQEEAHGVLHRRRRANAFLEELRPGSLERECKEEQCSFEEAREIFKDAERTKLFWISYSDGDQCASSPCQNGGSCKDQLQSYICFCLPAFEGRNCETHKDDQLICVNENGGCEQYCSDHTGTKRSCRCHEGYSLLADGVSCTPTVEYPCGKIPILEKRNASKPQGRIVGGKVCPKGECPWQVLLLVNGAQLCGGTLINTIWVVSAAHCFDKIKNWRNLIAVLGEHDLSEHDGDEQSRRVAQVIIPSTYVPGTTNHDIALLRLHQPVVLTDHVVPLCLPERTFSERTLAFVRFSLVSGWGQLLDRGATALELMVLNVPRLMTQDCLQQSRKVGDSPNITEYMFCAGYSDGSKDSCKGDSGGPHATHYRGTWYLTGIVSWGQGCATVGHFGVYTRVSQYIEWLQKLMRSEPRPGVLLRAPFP
The test can be described thus: Inhibition of factor 7a (unknown origin) at IC50 using pefachrome factor VIIa as substrate preincubated for 1 min followed by chromogenic substrate addition and measured for 2 mins in presence of AT-III. The following applies: time 3.0 min.

Test [10] deals with T2, Coagulation factor XII (Homo sapiens). The test is described as follows: Inhibition of factor 12a (unknown origin) at IC50 using kallikrein chromogenic substrate preincubated for 1 min followed by chromogenic substrate addition and measured for 2 mins. The following applies: time 3.0 min.
The target in test [11] is Coagulation factor XI (Homo sapiens) (UniProt P03951). The test can be described thus: Inhibition of factor 11a (unknown origin) at IC50 using S-2366 as substrate preincubated for 1 min followed by chromogenic substrate addition and measured for 2 mins. Conditions: time 3.0 min.
Test [12] has the same target. The test is described as follows: Inhibition of factor 11a (unknown origin) at IC50 using S-2366 as substrate preincubated for 1 min followed by chromogenic substrate addition and measured for 2 mins in presence of AT-III. The following applies: time 3.0 min.
Test [13] has as its target T1, Coagulation factor IX. The test is described as follows: Inhibition of factor 9a (unknown origin) binding to immobilized biotinylated oHG-11 assessed as activity potency of oligosaccharides multiplied by the percentage of oligosaccharides in dHG-5 by biolayer interferometry relative to dHG-5.
For test [14], the target named is Coagulation factor X (Homo sapiens) (UniProt P00742). The test can be described thus: Inhibition of factor 10a (unknown origin) at IC50 preincubated for 1 min followed by chromogenic substrate addition and measured for 2 mins. Conditions: time 3.0 min.
Test [15] has as its target T4, Coagulation factor IX/VIII (Homo sapiens) (UniProt P00740+P00451). The test is described as follows: Inhibition of human citrated plasma iXase (factor 8a-factor 9a complex) assessed as activity potency of oligosaccharides multiplied by the percentage of oligosaccharides in dHG-5 preincubated for 2 mins followed by factor 10 addition and measured after 1 min by FXa chromogenic substrate SXa-11 based assay relative to dHG-5. Format: protein-complex assay. The following applies: time 3.0 min.

The target in test [16] is Prothrombin (Homo sapiens) (UniProt P00734). The test is described as follows: Inhibition of factor 2a (unknown origin) at IC50 preincubated for 1 min followed by chromogenic substrate addition and measured for 2 mins in presence of AT-III. Conditions: time 3.0 min.
Test [17] deals with Coagulation factor X (Homo sapiens) (UniProt P00742). The test can be described thus: Inhibition of factor 10a (unknown origin) at IC50 preincubated for 1 min followed by chromogenic substrate addition and measured for 2 mins in presence of AT-III. The following applies: time 3.0 min.
Test [18] has as its target T3, Coagulation factor VII (Homo sapiens). The test can be described thus: Inhibition of factor 7a (unknown origin) at IC50 using pefachrome factor VIIa as substrate preincubated for 1 min followed by chromogenic substrate addition and measured for 2 mins. Conditions: time 3.0 min.
The target in test [19] is Prothrombin (Homo sapiens) (UniProt P00734). The test is described as follows: Inhibition of factor 2a (unknown origin) at IC50 preincubated for 1 min followed by chromogenic substrate addition and measured for 2 mins. Conditions: time 3.0 min.
Test [20] deals with Coagulation factor XI (Homo sapiens) (UniProt P03951). The test can be described thus: Inhibition of factor 11a (unknown origin) at IC90 using S-2366 as substrate preincubated for 1 min followed by chromogenic substrate addition and measured for 2 mins in presence of AT-III. Conditions: time 3.0 min.
Test [21] has as its target T4, Coagulation factor IX/VIII (Homo sapiens). The test is described as follows: Inhibition of human citrated plasma iXase (factor 8a-factor 9a complex) preincubated for 2 mins followed by factor 10 addition and measured after 1 min by FXa chromogenic substrate SXa-11 based assay relative to dHG-5. The following applies: time 3.0 min. The test is classed as protein-complex assay.

Sequence of Coagulation factor XI (Homo sapiens) (P03951 19-387 limits assumed): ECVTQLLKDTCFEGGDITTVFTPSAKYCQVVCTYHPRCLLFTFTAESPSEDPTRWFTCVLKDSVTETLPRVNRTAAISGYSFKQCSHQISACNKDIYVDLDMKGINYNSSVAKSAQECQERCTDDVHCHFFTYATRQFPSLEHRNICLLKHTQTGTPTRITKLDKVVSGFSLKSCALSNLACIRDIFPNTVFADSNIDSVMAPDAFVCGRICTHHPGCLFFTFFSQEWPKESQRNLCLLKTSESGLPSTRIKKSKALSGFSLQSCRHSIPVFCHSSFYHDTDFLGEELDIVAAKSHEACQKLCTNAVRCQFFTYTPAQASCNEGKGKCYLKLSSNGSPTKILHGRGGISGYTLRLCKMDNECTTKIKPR
Sequence of Coagulation factor XI (Homo sapiens) (P03951 388-625 limits assumed): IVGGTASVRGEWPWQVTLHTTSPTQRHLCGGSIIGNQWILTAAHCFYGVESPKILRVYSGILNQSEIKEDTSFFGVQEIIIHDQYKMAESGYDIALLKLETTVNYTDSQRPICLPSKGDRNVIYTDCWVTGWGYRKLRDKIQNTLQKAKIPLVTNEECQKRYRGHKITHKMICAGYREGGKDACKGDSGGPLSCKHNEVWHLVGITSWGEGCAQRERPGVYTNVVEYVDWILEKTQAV
Sequence of Coagulation factor X (Homo sapiens) (P00742 41-179 limits assumed): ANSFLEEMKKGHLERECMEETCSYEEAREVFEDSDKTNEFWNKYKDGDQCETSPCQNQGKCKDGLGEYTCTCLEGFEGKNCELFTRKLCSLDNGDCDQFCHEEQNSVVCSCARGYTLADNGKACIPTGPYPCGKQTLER
Sequence of Coagulation factor X (Homo sapiens) (P00742 235-488 limits assumed): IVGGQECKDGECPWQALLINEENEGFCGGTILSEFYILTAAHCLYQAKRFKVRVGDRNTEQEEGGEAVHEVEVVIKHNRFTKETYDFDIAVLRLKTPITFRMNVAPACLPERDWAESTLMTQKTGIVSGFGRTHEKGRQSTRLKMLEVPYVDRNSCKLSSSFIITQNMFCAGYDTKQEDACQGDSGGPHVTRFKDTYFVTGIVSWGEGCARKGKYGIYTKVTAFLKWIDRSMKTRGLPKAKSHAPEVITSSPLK
T1 sequence (P00740 47-191 limits assumed): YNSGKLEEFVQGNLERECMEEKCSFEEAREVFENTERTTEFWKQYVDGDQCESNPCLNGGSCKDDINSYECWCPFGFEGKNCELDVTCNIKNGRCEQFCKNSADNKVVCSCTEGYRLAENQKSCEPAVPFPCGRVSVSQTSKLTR
T1 sequence (P00740 227-461 limits assumed): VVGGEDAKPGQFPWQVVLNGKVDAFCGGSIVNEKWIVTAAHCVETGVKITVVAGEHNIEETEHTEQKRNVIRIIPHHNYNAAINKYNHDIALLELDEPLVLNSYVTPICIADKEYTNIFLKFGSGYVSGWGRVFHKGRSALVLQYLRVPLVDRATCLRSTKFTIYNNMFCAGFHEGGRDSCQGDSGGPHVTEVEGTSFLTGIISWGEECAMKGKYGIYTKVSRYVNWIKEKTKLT

As for `CC(=O)N[C@H]1[C@H](O[C@H]2[C@H](O[C@@H]3O[C@@H](C)[C@@H](OS(=O)(=O)[O-])[C@@H](OS(=O)(=O)O)[C@@H]3O)[C@@H](O)[C@H](O[C@@H]3[C@@H](NC(C)=O)[C@H](O[C@H]4[C@H](O[C@@H]5O[C@@H](C)[C@@H](OS(=O)(=O)[O-])[C@@H](OS(=O)(=O)O)[C@@H]5O)[C@@H](O)[C@H](O[C@@H]5[C@@H](NC(C)=O)[C@H](O[C@H]6[C@H](O[C@@H]7O[C@@H](C)[C@@H](OS(=O)(=O)[O-])[C@@H](OS(=O)(=O)O)[C@@H]7O)[C@@H](O)[C@H](O[C@@H]7[C@@H](NC(C)=O)[C@H](O[C@H]8[C@H](O[C@@H]9O[C@@H](C)[C@@H](OS(=O)(=O)[O-])[C@@H](OS(=O)(=O)O)[C@@H]9O)[C@@H](O)[C@H](O[C@@H]9[C@@H](NC(C)=O)[C@H](O[C@@H]([C@H](O[C@@H]%10O[C@@H](C)[C@@H](OS(=O)(=O)[O-])[C@@H](OS(=O)(=O)O)[C@@H]%10O)[C@@H](O)CO)[C@H](O)C(=O)O)O[C@H](COS(=O)(=O)[O-])[C@@H]9OS(=O)(=O)[O-])O[C@@H]8C(=O)O)O[C@H](COS(=O)(=O)[O-])[C@@H]7OS(=O)(=O)[O-])O[C@@H]6C(=O)[O-])O[C@H](COS(=O)(=O)[O-])[C@@H]5OS(=O)(=O)[O-])O[C@@H]4C(=O)[O-])O[C@H](COS(=O)(=O)[O-])[C@@H]3OS(=O)(=O)[O-])O[C@@H]2C(=O)[O-])O[C@H](COS(=O)(=O)[O-])[C@H](OS(=O)(=O)[O-])[C@@H]1O[C@@H]1O[C@H](C(=O)[O-])[C@@H](O[C@@H]2O[C@H](COS(=O)(=O)[O-])[C@H](OS(=O)(=O)[O-])[C@H](O[C@@H]3O[C@H](C(=O)[O-])[C@@H](O[C@@H]4O[C@H](COS(=O)(=O)[O-])[C@H](OS(=O)(=O)[O-])[C@H](O[C@@H]5O[C@H](C(=O)O)[C@@H](O[C@@H]6O[C@H](COS(=O)(=O)[O-])[C@H](OS(=O)(=O)[O-])[C@H](O[C@@H]7OC(C(=O)O)=C[C@H](O[C@@H]8O[C@@H](C)[C@@H](OS(=O)(=O)[O-])[C@@H](OS(=O)(=O)O)[C@@H]8O)[C@H]7O)[C@H]6NC(C)=O)[C@H](O[C@@H]6O[C@@H](C)[C@@H](OS(=O)(=O)[O-])[C@@H](OS(=O)(=O)O)[C@@H]6O)[C@H]5O)[C@H]4NC(C)=O)[C@H](O[C@@H]4O[C@@H](C)[C@@H](OS(=O)(=O)[O-])[C@@H](OS(=O)(=O)O)[C@@H]4O)[C@H]3O)[C@H]2NC(C)=O)[C@H](O[C@@H]2O[C@@H](C)[C@@H](OS(=O)(=O)[O-])[C@@H](OS(=O)(=O)O)[C@@H]2O)[C@H]1O.[Na+].[Na+].[Na+].[Na+].[Na+].[Na+].[Na+].[Na+].[Na+].[Na+].[Na+].[Na+].[Na+].[Na+].[Na+].[Na+].[Na+].[Na+].[Na+].[Na+].[Na+].[Na+].[Na+].[Na+].[Na+].[Na+].[Na+].[Na+].[Na+].[Na+]`, the Ratio in the test with Plasma [1] was 15.15 U; in the test with Rattus norvegicus [2] it was 13.38 U; on Coagulation factor IX [4], 235 U; with Rattus norvegicus [5], 284.73 U; in the test on Plasma [7], 319.64 U; on Coagulation factor IX [13], 11.2 U. The Ratio in test [15] was found to be 19.1 U; in [21], 403 U. The inhibition entry in test [3] and in test [20] was “Active” in each case. Besides, the inhibition entry in test [6], in test [8], in test [9], in test [10], in test [11] and in [12] was “inactive” throughout. For the same compound, the inhibition entry in test [14], in test [16], in [17] and in [19] was “inactive” each time. Further, in [18], the “inhibition (active/not active)” value is “inactive”.
